Experimental data published in patent US6573218B1, “Fused-benzene derivatives useful as herbicides” (Ishihara Sangyo Kaisha, Ltd., priority 1998, dated 2003).

Legend:
Type in all cases: in vivo
[1] = tested on: velvetleaf (Abutilon theophrasti, ABUTH); assay: Pre-emerge greenhouse herbicide test; conditions: 14 days after application, scale 0-100 (0 no damage, 100 complete death)
Excerpt: (§1) A standard greenhouse herbicide activity screening system was used to evaluate the herbicidal efficacy and crop safety of these test compounds. Seven broadleaf weed species including redroot pigweed (Amaranthus retroflexus, AMARE), velvetleaf (Abutilon theophrasti, ABUTH), sicklepod (Cassia obtusifolia, CASOB), ivyleaf morningglory (Ipomoea hederacea, IPOHE), lambsquarters (Chenopodium album, CHEAL), common ragweed (Ambrosia artemisiifolia L., AMBEL), and cocklebur (Xanthium strumarium, XANST) were used as test species. Four grass weed species including green foxtail (Setaria viridis, SETVI), barnyardgrass (Echinochloa crus-galli, ECHCG), johnsongrass (Sorghum halepense, SORHA), and large crabgrass (Digitaria sanguinalis, DIGSA) were also used. In addition, three crop species, field corn (Zea mays L., var. Dekalb 527, CORN), soybean (Glycine max L., var. Pella 86, SOY), and upland rice (Ory0a sp., var.Tebonnet, RICE) were included.
(§2) All plants were grown in 10 cm square plastic pots which were filled with a sandy loam soil mix. For pre-emerge tests, seeds were planted one day prior to application of the test compounds. For post-emerge tests, seeds were planted 8-21 days prior to the test to allow emergence and good foliage development prior to application of the test substances. At the time of the post-emerge application, plants of all species were usually at the 2-3 leaf stage of development.
(§3) All test compounds were dissolved in acetone and applied to the test units in a volume of 187 l/ha. Test materials were applied at rates ranging from 15 g ai/ha to 1000 g ai/ha using a track sprayer equipped with a TJ8001E even flow flat fan spray nozzle. Plants were arranged on a shelf so that the top of the canopy (post-emerge) or top of the soil surface (pre-emerge) was 40-45 cm below the nozzle. Pressurized air was used to force the test solution through the nozzle as it was mechanically advanced over the top of all test plants/pots. This application simulates a typical commercial field herbicide application.
(§4) In the post-emerge test, a commercial non-ionic surfactant was also included (0.25% v/v) to enhance wetting of the leaf surfaces of target plants. Immediately after application, test units of the pre-emerge applications were watered at the soil surface to incorporate the test materials.
(§5) At 14 days after application of the test materials, phytotoxicity ratings were recorded. A rating scale of 0-100 was used as previously described in Research Methods in Weed Science, 2nd edition, B. Truelove, Ed., Southern Weed Science Society, Auburn University, Auburn, Ala., 1977. Briefly, “0” corresponds to no damage and “100” corresponds to complete death of all plants in the test unit. This scale was used both to determine efficacy against weed species and damage to crop species. Herbicide activity data for various compounds of this invention, which are shown by compound No. in Tables 1-14, are shown in Tables 16 and 17.

[2] = tested on: large crabgrass (Digitaria sanguinalis, DIGSA); assay: Pre-emerge greenhouse herbicide test; conditions: 14 days after application, scale 0-100 (0 no damage, 100 complete death)
Excerpt: as §1, §2, §3, §4, §5

[3] = tested on: green foxtail (Setaria viridis, SETVI); assay: Pre-emerge greenhouse herbicide test; conditions: 14 days after application, scale 0-100 (0 no damage, 100 complete death)
Excerpt: as §1, §2, §3, §4, §5

[4] = tested on: sicklepod (Cassia obtusifolia, CASOB); assay: Pre-emerge greenhouse herbicide test; conditions: 14 days after application, scale 0-100 (0 no damage, 100 complete death)
Excerpt: as §1, §2, §3, §4, §5

[5] = tested on: redroot pigweed (Amaranthus retroflexus, AMARE); assay: Pre-emerge greenhouse herbicide test; conditions: 14 days after application, scale 0-100 (0 no damage, 100 complete death)
Excerpt: as §1, §2, §3, §4, §5

[6] = tested on: ivyleaf morningglory (Ipomoea hederacea, IPOHE); assay: Pre-emerge greenhouse herbicide test; conditions: 14 days after application, scale 0-100 (0 no damage, 100 complete death)
Excerpt: as §1, §2, §3, §4, §5

[7] = tested on: johnsongrass (Sorghum halepense, SORHA); assay: Pre-emerge greenhouse herbicide test; conditions: 14 days after application, scale 0-100 (0 no damage, 100 complete death)
Excerpt: as §1, §2, §3, §4, §5

[8] = tested on: barnyardgrass (Echinochloa crus-galli, ECHCG); assay: Pre-emerge greenhouse herbicide test; conditions: 14 days after application, scale 0-100 (0 no damage, 100 complete death)
Excerpt: as §1, §2, §3, §4, §5

[9] = tested on: lambsquarters (Chenopodium album, CHEAL); assay: Pre-emerge greenhouse herbicide test; conditions: 14 days after application, scale 0-100 (0 no damage, 100 complete death)
Excerpt: as §1, §2, §3, §4, §5

[10] = tested on: soybean (Glycine max L., var. Pella 86, SOY); assay: Pre-emerge greenhouse crop damage test; conditions: var. Pella 86, soybean (Glycine max L.), in vivo, 14 days
Excerpt: as §1, §2, §3, §4, §5

[11] = tested on: field corn (Zea mays L., var. Dekalb 527, CORN); assay: Pre-emerge greenhouse crop damage test; conditions: var. Dekalb 527, field corn (Zea mays L.), in vivo, 14 days
Excerpt: as §1, §2, §3, §4, §5

[12] = tested on: upland rice (Ory0a sp., var.Tebonnet, RICE); assay: Pre-emerge greenhouse crop damage test; conditions: var. Tebonnet, upland rice (Ory0a sp.), in vivo, 14 days
Excerpt: as §1, §2, §3, §4, §5

[13] = tested on: velvetleaf (Abutilon theophrasti, ABUTH); assay: Post-emerge greenhouse herbicide test; conditions: 14 days after application
Excerpt: as §1, §2, §3, §4, §5

[14] = tested on: large crabgrass (Digitaria sanguinalis, DIGSA); assay: Post-emerge greenhouse herbicide test; conditions: 14 days after application
Excerpt: as §1, §2, §3, §4, §5

[15] = tested on: green foxtail (Setaria viridis, SETVI); assay: Post-emerge greenhouse herbicide test; conditions: 14 days after application
Excerpt: as §1, §2, §3, §4, §5

[16] = tested on: sicklepod (Cassia obtusifolia, CASOB); assay: Post-emerge greenhouse herbicide test; conditions: 14 days after application
Excerpt: as §1, §2, §3, §4, §5

[17] = tested on: redroot pigweed (Amaranthus retroflexus, AMARE); assay: Post-emerge greenhouse herbicide test; conditions: 14 days after application
Excerpt: as §1, §2, §3, §4, §5

[18] = tested on: ivyleaf morningglory (Ipomoea hederacea, IPOHE); assay: Post-emerge greenhouse herbicide test; conditions: 14 days after application
Excerpt: as §1, §2, §3, §4, §5

[19] = tested on: johnsongrass (Sorghum halepense, SORHA); assay: Post-emerge greenhouse herbicide test; conditions: 14 days after application
Excerpt: as §1, §2, §3, §4, §5

[20] = tested on: barnyardgrass (Echinochloa crus-galli, ECHCG); assay: Post-emerge greenhouse herbicide test; conditions: 14 days after application
Excerpt: as §1, §2, §3, §4, §5

[21] = tested on: lambsquarters (Chenopodium album, CHEAL); assay: Post-emerge greenhouse herbicide test; conditions: 14 days after application
Excerpt: as §1, §2, §3, §4, §5

[22] = tested on: soybean (Glycine max L., var. Pella 86, SOY); assay: Post-emerge greenhouse crop damage test; conditions: var. Pella 86, soybean (Glycine max L.), in vivo, 14 days
Excerpt: as §1, §2, §3, §4, §5

[23] = tested on: field corn (Zea mays L., var. Dekalb 527, CORN); assay: Post-emerge greenhouse crop damage test; conditions: var. Dekalb 527, field corn (Zea mays L.), in vivo, 14 days
Excerpt: as §1, §2, §3, §4, §5

[24] = tested on: upland rice (Ory0a sp., var.Tebonnet, RICE); assay: Post-emerge greenhouse crop damage test; conditions: var. Tebonnet, upland rice (Ory0a sp.), in vivo, 14 days
Excerpt: as §1, §2, §3, §4, §5

Cn1c(C(F)(F)F)cc(=O)n(-c2c(F)cc(Cl)c3c2N=C(c2ccccc2)CO3)c1=O [Compound 1-3, 3-(8-Chloro-6-fluoro-3-phenyl-2H-1,4-benzoxazin-5-yl)-1-methyl-6-trifluoromethyl-2,4(1H,3H)-pyrimidindione]
Pre-emerge Herbicidal Activity ABUTH (phytotoxicity rating) ([1]; 250 g ai/ha): 80
Pre-emerge Herbicidal Activity DIGSA (phytotoxicity rating) ([2]; 250 g ai/ha): 0
Pre-emerge Herbicidal Activity SETVI (phytotoxicity rating) ([3]; 250 g ai/ha): 80
Pre-emerge Herbicidal Activity CASOB (phytotoxicity rating) ([4]; 250 g ai/ha): 80
Pre-emerge Herbicidal Activity AMARE (phytotoxicity rating) ([5]; 250 g ai/ha): 100
Pre-emerge Herbicidal Activity IPOHE (phytotoxicity rating) ([6]; 250 g ai/ha): 0
Pre-emerge Herbicidal Activity SORHA (phytotoxicity rating) ([7]; 250 g ai/ha): 0
Pre-emerge Herbicidal Activity ECHCG (phytotoxicity rating) ([8]; 250 g ai/ha): 0
Pre-emerge Herbicidal Activity CHEAL (phytotoxicity rating) ([9]; 250 g ai/ha): 100
Pre-emerge Herbicidal Activity SOY (crop damage rating) [10]: 0
Pre-emerge Herbicidal Activity CORN (crop damage rating) [11]: 0
Pre-emerge Herbicidal Activity RICE (crop damage rating) [12]: 10
Post-emerge Herbicidal Activity ABUTH (phytotoxicity rating 0-100) ([13]; 250 g ai/ha): 90
Post-emerge Herbicidal Activity DIGSA (phytotoxicity rating 0-100) ([14]; 250 g ai/ha): 0
Post-emerge Herbicidal Activity SETVI (phytotoxicity rating 0-100) ([15]; 250 g ai/ha): 0
Post-emerge Herbicidal Activity CASOB (phytotoxicity rating 0-100) ([16]; 250 g ai/ha): 0
Post-emerge Herbicidal Activity AMARE (phytotoxicity rating 0-100) ([17]; 250 g ai/ha): 60
Post-emerge Herbicidal Activity IPOHE (phytotoxicity rating 0-100) ([18]; 250 g ai/ha): 30
Post-emerge Herbicidal Activity SORHA (phytotoxicity rating 0-100) ([19]; 250 g ai/ha): 0
Post-emerge Herbicidal Activity ECHCG (phytotoxicity rating 0-100) ([20]; 250 g ai/ha): 0
Post-emerge Herbicidal Activity CHEAL (phytotoxicity rating 0-100) ([21]; 250 g ai/ha): 20
Post-emerge crop damage SOY (phytotoxicity rating 0-100) [22]: 30
Post-emerge crop damage CORN (phytotoxicity rating 0-100) [23]: 10
Post-emerge crop damage RICE (phytotoxicity rating 0-100) [24]: 20

Cn1c(C(F)(F)F)cc(=O)n(-c2c(F)cc(Cl)c3c2NCCO3)c1=O [Compound 2-1, 3-(8-Chloro-6-fluoro-3,4-dihydro-2H-1,4-benzoxazin-5-yl)-1-methyl-6-trifluoromethyl-2,4(1H,3H)-pyrimidindione]
Pre-emerge Herbicidal Activity ABUTH (phytotoxicity rating) ([1]; 125 g ai/ha): 100
Pre-emerge Herbicidal Activity DIGSA (phytotoxicity rating) ([2]; 125 g ai/ha): 100
Pre-emerge Herbicidal Activity SETVI (phytotoxicity rating) ([3]; 125 g ai/ha): 100
Pre-emerge Herbicidal Activity CASOB (phytotoxicity rating) ([4]; 125 g ai/ha): 40
Pre-emerge Herbicidal Activity AMARE (phytotoxicity rating) ([5]; 125 g ai/ha): 100
Pre-emerge Herbicidal Activity IPOHE (phytotoxicity rating) ([6]; 125 g ai/ha): 50
Pre-emerge Herbicidal Activity SORHA (phytotoxicity rating) ([7]; 125 g ai/ha): 95
Pre-emerge Herbicidal Activity ECHCG (phytotoxicity rating) ([8]; 125 g ai/ha): 50
Pre-emerge Herbicidal Activity CHEAL (phytotoxicity rating) ([9]; 125 g ai/ha): 100
Pre-emerge Herbicidal Activity SOY (crop damage rating) [10]: 50
Pre-emerge Herbicidal Activity CORN (crop damage rating) [11]: 20
Pre-emerge Herbicidal Activity RICE (crop damage rating) [12]: 70
Post-emerge Herbicidal Activity ABUTH (phytotoxicity rating 0-100) ([13]; 125 g ai/ha): 100
Post-emerge Herbicidal Activity DIGSA (phytotoxicity rating 0-100) ([14]; 125 g ai/ha): 0
Post-emerge Herbicidal Activity SETVI (phytotoxicity rating 0-100) ([15]; 125 g ai/ha): 50
Post-emerge Herbicidal Activity CASOB (phytotoxicity rating 0-100) ([16]; 125 g ai/ha): 80
Post-emerge Herbicidal Activity AMARE (phytotoxicity rating 0-100) ([17]; 125 g ai/ha): 90
Post-emerge Herbicidal Activity IPOHE (phytotoxicity rating 0-100) ([18]; 125 g ai/ha): 100
Post-emerge Herbicidal Activity SORHA (phytotoxicity rating 0-100) ([19]; 125 g ai/ha): 0
Post-emerge Herbicidal Activity ECHCG (phytotoxicity rating 0-100) ([20]; 125 g ai/ha): 10
Post-emerge Herbicidal Activity CHEAL (phytotoxicity rating 0-100) ([21]; 125 g ai/ha): 100
Post-emerge crop damage SOY (phytotoxicity rating 0-100) [22]: 90
Post-emerge crop damage CORN (phytotoxicity rating 0-100) [23]: 20
Post-emerge crop damage RICE (phytotoxicity rating 0-100) [24]: 40
